In patent US20080306038A1, “Compositions and Methods for Modulating Inflammation Using Fluoroquinolones” (priority 2007, published 2008):

Assays:
Format in all cases: cell-based, human
[1] = test system: IL-12p40; assay: LPS-stimulated IL-12p40 production in THP-1 monocytes (multiplex Luminex); parameters: key to Inhibition of LPS-stimulated IL-12p40 production: “X” signifies significant inhibition at a particular concentration; details: 18 hours
Experimental: (§1) Human THP-1 monocytes (ATCC TIB 202) were purchased from American Type Culture Collection (Manassas, Va.) and maintained in RPMI 1640 medium (Invitrogen, Carlsbad, Calif.) supplemented with 10% fetal bovine serum (“FBS”, Invitrogen, Carlsbad, Calif.), 100 U/mL of penicillin (Invitrogen, Carlsbad, Calif.), and 100 μg/mL of streptomycin (Invitrogen, Carlsbad, Calif.) at 37° C. in a humidified incubator with 5% CO2. THP-1 cells were pre-cultured in RPMI 1640 medium containing 10% dialyzed serum for 24 h. […] Each treatment was performed in triplicate.
(§2) Samples were analyzed using multiplex bead technology, which utilizes microspheres as the solid support for immunoassays and allows the analysis of all cytokines from each sample (D. A. Vignali, J. Immunol. Methods, Vol. 243, 243-255 (2000)). Sixteen cytokines were measured according to the manufacturer's instructions. Briefly, 50 μL of medium samples were incubated with antibody-coated capture beads overnight at 4° C. Washed beads were further incubated with biotin-labelled anti-human cytokine antibodies for 2 h at room temperature followed by incubation with streptavidin-phycoerythrin for 30 min. Samples were analyzed using Luminex 200™ (Luminex, Austin, Tex.) and Beadview software v1.0 (Upstate Cell Signaling Solutions, Temecula, Calif.). Standard curves of known concentrations of recombinant human cytokines were used to convert fluorescence units (median fluorescence intensity) to cytokine concentration in pg/mL. Only the linear portions of the standard curves were used to quantify cytokine concentrations, and in instances where the fluorescence reading exceeded the linear range of the standard curve, an appropriate dilution was performed to ensure that the concentration was in the linear portion of the curve.
(§3) All cytokine concentrations (pg/mL) were expressed as mean ±standard deviation. Statistical analysis comparing effects of treatment across groups was performed using a one-way ANOVA with a Dunnett's post-hoc comparison test using either vehicle control or LPS treatment as references. For all assays, p≦0.05 was predetermined as the criterion of statistical significance.

[2] = test system: IL-8; assay: LPS-stimulated IL-8 production in THP-1 monocytes (multiplex Luminex); parameters: key to Inhibition of LPS-stimulated IL-8 production: “X” signifies significant inhibition at a particular concentration; details: 18 hours, THP-1 monocytes
Experimental: as §1, §2, §3

[3] = test system: IL-6; assay: LPS-stimulated IL-6 production in THP-1 monocytes (multiplex Luminex); parameters: key to Inhibition of LPS-stimulated IL-6 production: “X” signifies significant inhibition at a particular concentration; details: 18 hours, THP-1 monocytes
Experimental: as §1, §2, §3

[4] = test system: VEGF; assay: LPS-stimulated VEGF production in THP-1 monocytes (multiplex Luminex); parameters: key to Inhibition of LPS-stimulated VEGF production: “X” signifies significant inhibition at a particular concentration; details: 30 μg/mL compound + 10 μg/mL LPS, 18 hours, THP-1 monocytes
Experimental: as §1, §2, §3

[5] = test system: IL-1α; assay: LPS-stimulated IL-1α production in THP-1 monocytes (multiplex Luminex); parameters: key to Inhibition of LPS-stimulated IL-1α production: “X” signifies significant inhibition at a particular concentration; details: 18 hours, THP-1 monocytes
Experimental: as §1, §2, §3

[6] = test system: IL-1ra; assay: LPS-stimulated IL-1ra production in THP-1 monocytes (multiplex Luminex); parameters: key to Inhibition of LPS-stimulated IL-1ra production: “X” signifies significant inhibition at a particular concentration; details: 18 hours, THP-1 monocytes
Experimental: as §1, §2, §3

[7] = test system: IL-1β; assay: LPS-stimulated IL-1β production in THP-1 monocytes (multiplex Luminex); parameters: key to Inhibition of LPS-stimulated IL-1β production: “X” signifies significant inhibition at a particular concentration; details: 18 hours, THP-1 monocytes
Experimental: as §1, §2, §3

[8] = test system: MIP-1α; assay: LPS-stimulated MIP-1α production in THP-1 monocytes (multiplex Luminex); parameters: key to Inhibition of LPS-stimulated MIP-1α production: “X” signifies significant inhibition at a particular concentration; details: 18 hours, THP-1 monocytes
Experimental: as §1, §2, §3

[9] = test system: IP-10; assay: LPS-stimulated IP-10 production in THP-1 monocytes (multiplex Luminex); parameters: key to Inhibition of LPS-stimulated IP-10 production: “X” signifies significant inhibition at a particular concentration; details: 18 hours, THP-1 monocytes
Experimental: as §1, §2, §3

[10] = 10 μg/mL compound + 10 μg/mL LPS
[11] = 30 μg/mL compound + 10 μg/mL LPS

## COc1c(N2C[C@@H]3CCCN[C@@H]3C2)c(F)cc2c(=O)c(C(=O)O)cn(C3CC3)c12 [Moxifloxacin, moxifloxacin, reference compound]
[1]; 1 μg/mL compound + 10 μg/mL LPS
  Inhibition of LPS-stimulated IL-12p40 production: X
[1]; [10]
  Inhibition of LPS-stimulated IL-12p40 production: X
[1]; [11]
  Inhibition of LPS-stimulated IL-12p40 production: X
[1]; LPS-induced
  Concentration at which a significant inhibitory effect was observed for IL-12p40: 1 µg/mL
[2]; [11]
  Inhibition of LPS-stimulated IL-8 production: X
[2]; LPS-induced
  Concentration at which a significant inhibitory effect was observed for IL-8: 30 µg/mL
[3]; [10]
  Inhibition of LPS-stimulated IL-6 production: X
[3]; LPS-induced
  Concentration at which a significant inhibitory effect was observed for IL-6: 10 µg/mL
[4]
  Inhibition of LPS-stimulated VEGF production: X
[5]; [11]
  Inhibition of LPS-stimulated IL-1α production: X
[5]; LPS-induced
  Concentration at which a significant inhibitory effect was observed for IL-1α: 30 µg/mL
[6]; [10]
  Inhibition of LPS-stimulated IL-1ra production: X
[6]; [11]
  Inhibition of LPS-stimulated IL-1ra production: X
[6]; LPS-induced
  Concentration at which a significant inhibitory effect was observed for IL-1ra: 10 µg/mL
[7]; [11]
  Inhibition of LPS-stimulated IL-1β production: X
[7]; LPS-induced
  Concentration at which a significant inhibitory effect was observed for IL-1β: 30 µg/mL
[8]; [11]
  Inhibition of LPS-stimulated MIP-1α production: X
[8]; LPS-induced
  Concentration at which a significant inhibitory effect was observed for MIP-1α: 30 µg/mL
[9]; [11]
  Inhibition of LPS-stimulated IP-10 production: X
[9]; LPS-induced
  Concentration at which a significant inhibitory effect was observed for IP-10: 30 µg/mL
